Reference: the NIST ThermoML archive (doi:10.1021/acs.jced.8b00132)
Where “and” joins values, the source holds several entries; their conditions need not be identical. Equal values may be shown once. ± gives the expanded uncertainty stated by the source.

Settings: Liquid, transient hot wire

SMILES: O=C(C(F)(F)C(F)(F)F)C(F)(C(F)(F)F)C(F)(F)F [dodecafluoro-2-methylpentan-3-one]
- thermal conductivity (192.97 K, 9415 kPa): 0.07862 ± 0.0016 W/m/K
- thermal conductivity (192.97 K, 9417 kPa): 0.07861 ± 0.0016 W/m/K
- thermal conductivity (192.98 K, 6038 kPa): 0.0783 ± 0.0016 W/m/K
- thermal conductivity (192.98 K, 6049 kPa): 0.07834 ± 0.0016 W/m/K
- thermal conductivity (192.99 K, 167 kPa): 0.07692 ± 0.0016 W/m/K
- thermal conductivity (192.99 K, 173 kPa): 0.07695 ± 0.0016 W/m/K
- thermal conductivity (193 K, 151 kPa): 0.07702 ± 0.0016 W/m/K
- thermal conductivity (193 K, 154 kPa): 0.07718 ± 0.0016 W/m/K
- thermal conductivity (193.29 K, 67553 kPa): 0.08802 ± 0.0018 W/m/K
- thermal conductivity (193.29 K, 67565 kPa): 0.0877 ± 0.0018 W/m/K
- thermal conductivity (193.3 K, 61029 kPa): 0.08639 ± 0.0018 W/m/K
- thermal conductivity (193.31 K, 52610 kPa): 0.086 ± 0.0018 W/m/K
- thermal conductivity (193.31 K, 52615 kPa): 0.08604 ± 0.0018 W/m/K
- thermal conductivity (193.31 K, 61018 kPa): 0.08674 ± 0.0018 W/m/K
- thermal conductivity (193.33 K, 44206 kPa): 0.08413 ± 0.0017 W/m/K
- thermal conductivity (193.33 K, 44213 kPa): 0.08424 ± 0.0017 W/m/K
- thermal conductivity (193.35 K, 36147 kPa): 0.08312 ± 0.0017 W/m/K
- thermal conductivity (193.35 K, 36154 kPa): 0.08322 ± 0.0017 W/m/K
- thermal conductivity (193.37 K, 28301 kPa): 0.08185 ± 0.0017 W/m/K
- thermal conductivity (193.37 K, 28302 kPa): 0.08165 ± 0.0017 W/m/K
- thermal conductivity (193.42 K, 20237 kPa): 0.08068 ± 0.0017 W/m/K
- thermal conductivity (193.43 K, 20237 kPa): 0.08099 ± 0.0017 W/m/K
- thermal conductivity (193.45 K, 13265 kPa): 0.07982 ± 0.0016 W/m/K
- thermal conductivity (193.45 K, 13266 kPa): 0.07945 ± 0.0016 W/m/K
- thermal conductivity (193.48 K, 6427 kPa): 0.07813 ± 0.0016 W/m/K
- thermal conductivity (193.48 K, 6455 kPa): 0.07812 ± 0.0016 W/m/K
- thermal conductivity (193.51 K, 179 kPa): 0.07701 ± 0.0016 W/m/K
- thermal conductivity (193.52 K, 180 kPa): 0.07688 ± 0.0016 W/m/K
- thermal conductivity (211.41 K, 165 kPa): 0.07448 ± 0.0015 W/m/K
- thermal conductivity (211.41 K, 170 kPa): 0.07442 ± 0.0015 W/m/K
- thermal conductivity (211.41 K, 5799 kPa): 0.07599 ± 0.0016 W/m/K
- thermal conductivity (211.41 K, 5800 kPa): 0.0759 ± 0.0016 W/m/K
- thermal conductivity (211.41 K, 12664 kPa): 0.07737 ± 0.0016 W/m/K
- thermal conductivity (211.41 K, 12666 kPa): 0.07746 ± 0.0016 W/m/K
- thermal conductivity (211.41 K, 19434 kPa): 0.07882 ± 0.0016 W/m/K and 0.07893 ± 0.0016 W/m/K
- thermal conductivity (211.43 K, 26838 kPa): 0.08023 ± 0.0016 W/m/K
- thermal conductivity (211.43 K, 26842 kPa): 0.08059 ± 0.0017 W/m/K
- thermal conductivity (211.43 K, 34778 kPa): 0.08175 ± 0.0017 W/m/K
- thermal conductivity (211.43 K, 34786 kPa): 0.0823 ± 0.0017 W/m/K
- thermal conductivity (211.76 K, 52040 kPa): 0.08466 ± 0.0017 W/m/K
- thermal conductivity (211.76 K, 52042 kPa): 0.08451 ± 0.0017 W/m/K
- thermal conductivity (211.77 K, 60806 kPa): 0.08612 ± 0.0018 W/m/K
- thermal conductivity (211.77 K, 60808 kPa): 0.0862 ± 0.0018 W/m/K
- thermal conductivity (211.77 K, 67154 kPa): 0.087 ± 0.0018 W/m/K
- thermal conductivity (211.78 K, 67150 kPa): 0.08734 ± 0.0018 W/m/K
- thermal conductivity (211.8 K, 12660 kPa): 0.07728 ± 0.0016 W/m/K
- thermal conductivity (211.8 K, 19446 kPa): 0.07881 ± 0.0016 W/m/K
- thermal conductivity (211.8 K, 19450 kPa): 0.07869 ± 0.0016 W/m/K
- thermal conductivity (211.81 K, 173 kPa): 0.07406 ± 0.0015 W/m/K
- thermal conductivity (211.81 K, 5801 kPa): 0.07566 ± 0.0016 W/m/K
- thermal conductivity (211.81 K, 5813 kPa): 0.07576 ± 0.0016 W/m/K
- thermal conductivity (211.81 K, 12660 kPa): 0.0775 ± 0.0016 W/m/K
- thermal conductivity (211.81 K, 26841 kPa): 0.07965 ± 0.0016 W/m/K
- thermal conductivity (211.81 K, 26845 kPa): 0.08017 ± 0.0016 W/m/K
- thermal conductivity (211.81 K, 34792 kPa): 0.08166 ± 0.0017 W/m/K
- thermal conductivity (211.81 K, 34801 kPa): 0.08137 ± 0.0017 W/m/K
- thermal conductivity (211.81 K, 43011 kPa): 0.08307 ± 0.0017 W/m/K
- thermal conductivity (211.81 K, 43012 kPa): 0.0834 ± 0.0017 W/m/K
- thermal conductivity (211.82 K, 163 kPa): 0.07354 ± 0.0015 W/m/K
- thermal conductivity (212.17 K, 60783 kPa): 0.08526 ± 0.0018 W/m/K
- thermal conductivity (212.17 K, 60795 kPa): 0.08562 ± 0.0018 W/m/K
- thermal conductivity (212.17 K, 67130 kPa): 0.08706 ± 0.0018 W/m/K
- thermal conductivity (212.18 K, 52048 kPa): 0.08429 ± 0.0017 W/m/K
- thermal conductivity (212.18 K, 52063 kPa): 0.08422 ± 0.0017 W/m/K
- thermal conductivity (212.18 K, 67138 kPa): 0.08699 ± 0.0018 W/m/K
- thermal conductivity (212.23 K, 26847 kPa): 0.0801 ± 0.0016 W/m/K
- thermal conductivity (212.23 K, 34793 kPa): 0.08106 ± 0.0017 W/m/K
- thermal conductivity (212.23 K, 34794 kPa): 0.08097 ± 0.0017 W/m/K
- thermal conductivity (212.23 K, 43021 kPa): 0.08227 ± 0.0017 W/m/K
- thermal conductivity (212.24 K, 12668 kPa): 0.07725 ± 0.0016 W/m/K
- thermal conductivity (212.24 K, 19437 kPa): 0.07855 ± 0.0016 W/m/K
- thermal conductivity (212.24 K, 26845 kPa): 0.07971 ± 0.0016 W/m/K
- thermal conductivity (212.25 K, 12667 kPa): 0.07727 ± 0.0016 W/m/K
- thermal conductivity (212.26 K, 5796 kPa): 0.07549 ± 0.0015 W/m/K
- thermal conductivity (212.27 K, 173 kPa): 0.0737 ± 0.0015 W/m/K
- thermal conductivity (212.27 K, 5805 kPa): 0.07454 ± 0.0015 W/m/K
- thermal conductivity (212.28 K, 168 kPa): 0.07378 ± 0.0015 W/m/K
- thermal conductivity (212.61 K, 67097 kPa): 0.08653 ± 0.0018 W/m/K
- thermal conductivity (212.61 K, 67117 kPa): 0.08664 ± 0.0018 W/m/K
- thermal conductivity (212.62 K, 52074 kPa): 0.0837 ± 0.0017 W/m/K
- thermal conductivity (212.62 K, 60785 kPa): 0.08529 ± 0.0018 W/m/K
- thermal conductivity (212.62 K, 60787 kPa): 0.08543 ± 0.0018 W/m/K
- thermal conductivity (212.63 K, 52063 kPa): 0.08349 ± 0.0017 W/m/K
- thermal conductivity (212.68 K, 43009 kPa): 0.08278 ± 0.0017 W/m/K
